Experimental findings from patent publication US9493451B2 (Bionomics Limited, priority 2011, dated 2016) are described below.

In the experiment the target is T1, Kv1.3 (Homo sapiens, UniProt P22001).
T1 construct: expressed in transfected cells; host or cells: CHO (Kv1.3/CHO)
T1 sequence (P22001 whole entry): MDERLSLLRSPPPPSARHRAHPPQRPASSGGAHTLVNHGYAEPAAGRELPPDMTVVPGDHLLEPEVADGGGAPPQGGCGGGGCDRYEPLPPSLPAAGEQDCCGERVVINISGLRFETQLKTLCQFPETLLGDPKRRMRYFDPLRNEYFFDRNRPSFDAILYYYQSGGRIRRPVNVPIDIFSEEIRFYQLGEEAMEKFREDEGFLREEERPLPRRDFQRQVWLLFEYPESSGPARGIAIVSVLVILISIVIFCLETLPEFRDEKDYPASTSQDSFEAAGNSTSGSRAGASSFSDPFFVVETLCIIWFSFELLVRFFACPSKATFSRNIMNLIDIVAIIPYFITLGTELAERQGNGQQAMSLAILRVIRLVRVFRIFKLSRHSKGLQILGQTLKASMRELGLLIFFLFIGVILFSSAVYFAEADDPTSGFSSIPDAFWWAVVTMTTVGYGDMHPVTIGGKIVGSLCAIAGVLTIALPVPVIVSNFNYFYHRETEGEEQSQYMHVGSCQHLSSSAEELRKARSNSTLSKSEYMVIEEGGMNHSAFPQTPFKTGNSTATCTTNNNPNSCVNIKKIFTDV
The experiment in a line: Electrophysiology: planar patch-clamp of Kv1.3 currents, IC50 from steady state current amplitude. The note with it: Kv1.3 electrophysiology, results according to Method D1, read-out: IC50 (Kv1.3 ephys steady state). The experiment is classed as cell-based. Put shortly: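 Planar patch-clamp, whole-cell, Kv1.3/CHO cells; 500 ms pulses to +40 mV from −80 mV every 30 s; bath pH 7.4, pipette pH 7.2; 0.5% DMSO final. 5-6 cumulative concentrations on 2-3 cells to steady-state block; IC50 from Hill fit of normalised steady-state current at pulse end.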
(In general: Patch clamp records ionic current or voltage across a cell membrane.)
As a reminder, the IC50 is the concentration at which inhibition is half-maximal. For the compound `CC(C)C(c1ccc(F)cc1)N(CCC1CCNCC1)C(=O)CS(=O)(=O)c1ccc(F)cc1` (stereo not drawn) [Example 284], the IC50 lay in the range of 200 to 1000 nM.

With `CN1CCC(C(c2ccc(F)cc2F)N(Cc2ccc(F)cn2)C(=O)CS(=O)(=O)c2ccc(F)cc2)CC1` (stereo not drawn) [Example 287], the IC50 was in the range of 200 to 1000 nM.

Take `CC(c1ccc(S(C)(=O)=O)cc1)N(Cc1ccc(C(F)(F)F)nc1)C(=O)C(C)(C)S(=O)(=O)c1ccccc1` (stereo not drawn) [Example 288]: the half-inhibitory concentration (IC50) lay within 1000 to 2000 nM.

On to `O=C(CS(=O)(=O)c1ccc(F)cc1)N(Cc1ccc(F)cn1)C(c1ccc(Cl)cc1)C1CC1` (stereo not drawn) [Example 290], for which the 50% inhibitory concentration (IC50) is 50 to 200 nM.

Consider `O=C(CS(=O)(=O)c1ccc(F)cc1)N(Cc1ccc(F)nc1)C(c1ccc(Cl)cc1)C1CC1` (stereo not drawn) [Example 291], for which the IC50 is 50 to 200 nM.

Turning to `O=C(CS(=O)(=O)c1cccc(C(F)(F)F)c1)N(Cc1cccc[n+]1[O-])C(c1ccc(Cl)cc1)C1CC1` (stereo not drawn) [Example 292], the half-inhibitory concentration (IC50) fell in the range of 200 to 1000 nM.

As to `O=C(CS(=O)(=O)c1cccc(C(F)(F)F)c1)N(Cc1ccccn1)C(c1ccc(Cl)cc1)C1CC1` (stereo not drawn) [Example 293], the 50% inhibitory concentration (IC50) lay within 50 to 200 nM.

With `O=C(CS(=O)(=O)c1cccc(C(F)(F)F)c1)N(Cc1ccccn1)C(c1ccc(Cl)cc1)C1CC1` (stereo not drawn) [Example 294], the IC50 lay in the range of 50 to 200 nM.

As for `COc1ccc(CN(C(=O)CS(=O)(=O)c2ccc(F)cc2)C(c2ccc(Cl)cc2)C2CC2)cn1` (stereo not drawn) [Example 295], the half-maximal inhibitory concentration (IC50) fell in the range of 50 to 200 nM.

For the compound `O=C(CS(=O)(=O)c1ccc(F)cc1)N(C1CCNCC1)C(c1ccc(OC(F)F)cc1)C1CC1` (stereo not drawn) [Example 298], the IC50 lay within 200 to 1000 nM.

For the compound `O=C(CS(=O)(=O)c1ccccc1F)N(Cc1ccc(C(F)(F)F)nc1)C(c1ccc(OC(F)F)cc1)C1CC1` (stereo not drawn) [Example 299], the IC50 lay in the range of 50 to 200 nM.

For `O=C(CS(=O)(=O)c1ccccc1F)N(Cc1ccc(C(F)(F)F)nc1)C(c1ccc(OC(F)F)cc1)C1CC1` (stereo not drawn) [Example 300], the IC50 was in the range of 50 to 200 nM.

For `O=C(CS(=O)(=O)c1ccccc1)N(Cc1ccc(C(F)(F)F)nc1)C(c1ccc(OC(F)F)cc1)C1CC1` (stereo not drawn) [Example 301], the concentration for half-maximal inhibition (IC50) was in the range of 50 to 200 nM.

As to `O=C(CS(=O)(=O)c1ccccc1)N(Cc1ccc(C(F)(F)F)nc1)C(c1ccc(OC(F)F)cc1)C1CC1` (stereo not drawn) [Example 302], the IC50 is 50 to 200 nM.

`O=C(CS(=O)(=O)c1ccccc1)N(Cc1ncccc1F)C(c1ccc(OC(F)F)cc1)C1CC1` (stereo not drawn) [Example 303]: the half-maximal inhibitory concentration (IC50) fell in the range of 50 to 200 nM.

Take `O=C(CS(=O)(=O)c1ccccc1)N(Cc1ncccc1F)C(c1ccc(OC(F)F)cc1)C1CC1` (stereo not drawn) [Example 304]: the IC50 lay in the range of 50 to 200 nM.

For the compound `O=C(CS(=O)(=O)c1ccccc1)N(Cc1cccnn1)C(c1ccc(OC(F)F)cc1)C1CC1` (stereo not drawn) [Example 305], the concentration for half-maximal inhibition (IC50) was 50 to 200 nM.

`O=C(CS(=O)(=O)c1ccccc1)N(Cc1cccnn1)C(c1ccc(OC(F)F)cc1)C1CC1` (stereo not drawn) [Example 306]: the IC50 lay within 200 to 1000 nM.

For the compound `O=C(CS(=O)(=O)c1cccc(C(F)(F)F)c1)N(Cc1cccnn1)C(c1ccc(OC(F)F)cc1)C1CC1` (stereo not drawn) [Example 307], the half-maximal inhibitory concentration (IC50) fell in the range of 50 to 200 nM.

On to `CC(C)(C(=O)N(Cc1cccnn1)C(c1ccc(OC(F)F)cc1)C1CC1)S(=O)(=O)c1ccc(F)cc1` (stereo not drawn) [Example 308], for which the IC50 is 50 to 200 nM.

Consider `O=C(CS(=O)(=O)c1ccc(F)cc1)N(Cc1ncccc1F)C(c1ccc(OC(F)F)cc1)C1CC1` (stereo not drawn) [Example 309], for which the half-inhibitory concentration (IC50) is 50 to 200 nM.

As to `O=C(CS(=O)(=O)c1cccc(C(F)(F)F)c1)N(Cc1cccnn1)C(c1ccc(OC(F)F)cc1)C1CC1` (stereo not drawn) [Example 310], the IC50 lay in the range of 200 to 1000 nM.

Regarding `CC(C)(C(=O)N(Cc1cccnn1)C(c1ccc(OC(F)F)cc1)C1CC1)S(=O)(=O)c1ccc(F)cc1` (stereo not drawn) [Example 311], the 50% inhibitory concentration (IC50) is 200 to 1000 nM.

As to `O=C(CS(=O)(=O)c1ccc(F)cc1)N(Cc1ccc(C(F)(F)F)nc1)C(c1ccc(OC(F)F)cc1)C1CC1` (stereo not drawn) [Example 312], the IC50 is 50 to 200 nM.

Take `O=C(CS(=O)(=O)c1ccc(F)cc1)N(Cc1ccc(C(F)(F)F)nc1)C(c1ccc(OC(F)F)cc1)C1CC1` (stereo not drawn) [Example 313]: the IC50 is 50 to 200 nM.

In the case of `O=C(CS(=O)(=O)c1ccc(F)cc1)N(Cc1ccccn1)C(c1ccc(OC(F)F)cc1)C1CC1` (stereo not drawn) [Example 314], the IC50 was 200 to 1000 nM.

Take `O=C(CS(=O)(=O)c1ccc(F)cc1)N(C1CCC(F)(F)CC1)C(c1ccc(OC(F)F)cc1)C1CC1` (stereo not drawn) [Example 315]: the IC50 fell in the range of 200 to 1000 nM.

Turning to `O=C(CS(=O)(=O)c1ccc(F)cc1)N(C1CCC(F)(F)CC1)C(c1ccc(OC(F)F)cc1)C1CC1` (stereo not drawn) [Example 316], the IC50 is 200 to 1000 nM.

Take `O=C(CS(=O)(=O)c1ccc(F)cc1)N(C1CCOCC1)C(c1ccc(OC(F)F)cc1)C1CC1` (stereo not drawn) [Example 317]: the half-inhibitory concentration (IC50) was 200 to 1000 nM.

Consider `CC(C)(C(=O)N(Cc1ccccn1)C(c1ccc(OC(F)F)cc1)C1CC1)S(=O)(=O)c1ccc(F)cc1` (stereo not drawn) [Example 318], for which the IC50 fell in the range of 50 to 200 nM.

For `CC(C)(C(=O)N(Cc1ccccn1)C(c1ccc(OC(F)F)cc1)C1CC1)S(=O)(=O)c1ccc(F)cc1` (stereo not drawn) [Example 319], the IC50 fell in the range of 50 to 200 nM.

As to `Cc1cccc(CN(C(=O)CS(=O)(=O)c2ccc(F)cc2)C(c2ccc(OC(F)F)cc2)C2CC2)n1` (stereo not drawn) [Example 320], the concentration for half-maximal inhibition (IC50) was less than 50 nM.

Take `Cc1ccc(CN(C(=O)CS(=O)(=O)c2ccccc2)C(c2ccc(OC(F)F)cc2)C2CC2)cn1` (stereo not drawn) [Example 322]: the IC50 is 50 to 200 nM.

Turning to `Cc1ccc(CN(C(=O)CS(=O)(=O)c2ccccc2)C(c2ccc(OC(F)F)cc2)C2CC2)cn1` (stereo not drawn) [Example 323], the IC50 lay in the range of 200 to 1000 nM.

As to `CC(C)(C(=O)N(Cc1ccc(C(F)(F)F)nc1)C(c1ccc(OC(F)F)cc1)C1CC1)S(=O)(=O)c1ccccc1` (stereo not drawn) [Example 324], the concentration for half-maximal inhibition (IC50) was 50 to 200 nM.

Turning to `CCS(=O)(=O)c1cccc(C(C2CC2)N(Cc2ncccc2F)C(=O)CS(=O)(=O)c2ccccc2)c1` (stereo not drawn) [Example 327], the IC50 was in the range of 1000 to 2000 nM.

With `CCS(=O)(=O)c1cccc(C(C2CC2)N(Cc2ccccn2)C(=O)C(C)(C)S(=O)(=O)c2ccccc2)c1` (stereo not drawn) [Example 328], the IC50 fell in the range of 200 to 1000 nM.

On to `O=C(CS(=O)(=O)c1ccc(F)cc1)N(Cc1ccccn1)C(c1ccccc1OCC(F)F)C1CC1` (stereo not drawn) [Example 329], for which the IC50 fell in the range of 50 to 200 nM.

For the compound `O=C(CS(=O)(=O)c1ccc(F)cc1)N(Cc1ccc(C(F)(F)F)nc1)C(c1ccccc1OCC(F)F)C1CC1` (stereo not drawn) [Example 330], the IC50 is 50 to 200 nM.

In the case of `Cc1cccc(CN(C(=O)CS(=O)(=O)c2ccc(F)cc2)C(c2ccccc2OC(F)(F)F)C2CC2)n1` (stereo not drawn) [Example 331], the 50% inhibitory concentration (IC50) lay in the range of 50 to 200 nM.

Take `N#Cc1cccc(C(C2CC2)N(Cc2ccc(C(F)(F)F)nc2)C(=O)CS(=O)(=O)c2ccc(F)cc2)c1` (stereo not drawn) [Example 332]: the half-maximal inhibitory concentration (IC50) was 50 to 200 nM.

Take `N#Cc1cccc(C(C2CC2)N(Cc2ccc(C(F)(F)F)nc2)C(=O)CS(=O)(=O)c2ccc(F)cc2)c1` (stereo not drawn) [Example 333]: the IC50 was in the range of 200 to 1000 nM.
